The target in data set [1] is T1, rat Cyp2b1 (Rattus norvegicus, UniProt P00176).
T1 construct: purchased BD Gentest; host or cells: baculovirus infected insect cells
Kind of data set: Recombinant rat Cyp phenotype profiling, 2B1. It counts as in vitro ADME. The note with it: 60 min. As to the method: (§1) Identification of the drug metabolizing enzymes (DMEs) of A-998679 was studied in cDNA expressed recombinant enzymes prepared from baculovirus infected insect cells over-expressing rat Cyp isoforms (BD Gentest, Woburn, MA) as listed in Table 2. Incubations were conducted in duplicate using Supersomes. The incubation mixture contained 100 pmol/ml of enzymes, except for Cyp1a1 (200 pmol/ml), 0.1 or 0.21 μM of [^3H]A-998679 in 100 mM phosphate buffer (pH 7.4). Reactions were initiated with the addition of NADPH at a final concentration of 1 mM and incubated at 37°C for 60 min. At the end of the incubation period, the incubations were terminated by the addition of acetonitrile/ethanol (50/50, v/v) solution. Insect control samples lacking expressed enzyme were used as negative control. The degree of metabolism of A-998679 was assessed by percent of parent remaining using the radio-HPLC method described below.
(§2) Radiolabeled components from the above assays were profiled following separation by HPLC with on line radioflow detector. The system consisted of an Agilent 1100 Series quaternary pump and autosampler connected to a Packard 500TR flow scintillation detector. The data were processed using the Radiomatic™ Flo-one® software v3.65. The scintillant (Perkin Elmer FLO-SCINT™ III) flow was maintained at 3 ml/min. […]

Data set [2] deals with Cyp1a2. Kind of data set: Cyp1a2 mRNA in rat small intestine (jejunum). The note with it: data not shown. It counts as in vivo. As to the method:
(§3) All animal experiments were conducted in accordance with the Guiding Principles in the Use of Animals in Toxicology (http://www.toxicology.org/ai/air/air6.asp) and were approved by Abbott's Institutional Animal Care and Use Committee (IACUC). Male Sprague-Dawley rats [Crl:CD®(SD)IGS BR], weighing ~250 g at study initiation were obtained from Charles River Laboratories, Inc. (Wilmington, MA). Rats were housed singly in ventilated, stainless steel, wire-bottom hanging cages and fed non-certified Rodent Chow (Harlan Labs, Madison, WI), and water ad libitum and acclimated for at least 5 days after arrival. […] Serum clinical chemistry parameters were quantified using an Aeroset Clinical Chemistry Analyzer (Abbott Laboratories, Abbott Park, IL) and included alanine amino transferase (ALT), aspartate amino transferase (AST), gamma glutamyltransferase (GGT), and alkaline phosphatase (ALP) activities.
(§4) Frozen liver or jejunum were immediately added to 4 ml of TRIzol reagent (Invitrogen Life Technologies) and homogenized using a Polytron 300D homogenizer (Brinkman Instruments, Westbury, NY). […] Nucleic acid concentration was determined by OD 260 nm (Smart-Spec, Bio-Rad Laboratories, Hercules, CA), and RNA integrity was evaluated using an Agilent 2100 bioanalyzer (Agilent Technologies, Foster City, CA). […]

The target in data set [3] is T2, rat Cyp 2C13 (Rattus norvegicus, UniProt P20814).
T2 construct: purchased BD Gentest; host or cells: baculovirus infected insect cells
T2 sequence (P20814 whole entry): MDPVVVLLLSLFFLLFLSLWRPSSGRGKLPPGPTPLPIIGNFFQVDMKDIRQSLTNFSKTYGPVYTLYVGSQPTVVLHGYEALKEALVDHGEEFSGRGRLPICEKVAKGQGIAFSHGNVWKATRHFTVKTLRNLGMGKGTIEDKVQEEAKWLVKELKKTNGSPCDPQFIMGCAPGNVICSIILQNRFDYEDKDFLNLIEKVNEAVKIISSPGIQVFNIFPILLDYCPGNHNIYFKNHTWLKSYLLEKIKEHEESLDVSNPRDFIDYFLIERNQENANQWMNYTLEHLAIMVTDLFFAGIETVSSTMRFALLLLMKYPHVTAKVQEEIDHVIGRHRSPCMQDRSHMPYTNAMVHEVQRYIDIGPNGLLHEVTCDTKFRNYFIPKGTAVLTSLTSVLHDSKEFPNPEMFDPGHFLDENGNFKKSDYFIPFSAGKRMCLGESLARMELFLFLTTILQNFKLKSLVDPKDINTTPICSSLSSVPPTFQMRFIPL
The data set can be described thus: Recombinant rat Cyp phenotype profiling, 2C13. Type of data set: in vitro ADME. The note with it: 60 min. The procedure:
as §1, §2

Data set [4] deals with Cyp1a2. The data set can be described thus: Cyp1a2 mRNA in rat liver after 5 days of dosing (microarray, RT-PCR). It counts as in vivo. The procedure:
as §3, §4

The target of data set [5] is T3, rat Cyp 2D1 (Rattus norvegicus, UniProt P10633).
T3 construct: purchased BD Gentest; host or cells: baculovirus infected insect cells
T3 sequence (P10633 whole entry): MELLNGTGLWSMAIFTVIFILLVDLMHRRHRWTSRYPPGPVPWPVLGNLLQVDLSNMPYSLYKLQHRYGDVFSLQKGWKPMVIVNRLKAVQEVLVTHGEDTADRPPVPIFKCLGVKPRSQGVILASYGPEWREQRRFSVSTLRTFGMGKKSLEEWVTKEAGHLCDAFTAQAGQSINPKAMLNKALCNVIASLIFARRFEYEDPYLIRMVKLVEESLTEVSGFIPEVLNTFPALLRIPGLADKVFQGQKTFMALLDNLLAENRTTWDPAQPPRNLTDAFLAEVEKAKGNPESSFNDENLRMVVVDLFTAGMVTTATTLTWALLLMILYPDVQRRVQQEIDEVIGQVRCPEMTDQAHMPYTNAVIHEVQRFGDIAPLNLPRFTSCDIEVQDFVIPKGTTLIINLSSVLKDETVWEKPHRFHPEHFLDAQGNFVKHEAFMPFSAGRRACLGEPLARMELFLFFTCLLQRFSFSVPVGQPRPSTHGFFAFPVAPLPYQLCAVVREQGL
Kind of data set: Recombinant rat Cyp phenotype profiling, 2D1. The note with it: 60 min. It counts as in vitro ADME. As to the method: as §1, §2

T1 sequence (P00176 whole entry): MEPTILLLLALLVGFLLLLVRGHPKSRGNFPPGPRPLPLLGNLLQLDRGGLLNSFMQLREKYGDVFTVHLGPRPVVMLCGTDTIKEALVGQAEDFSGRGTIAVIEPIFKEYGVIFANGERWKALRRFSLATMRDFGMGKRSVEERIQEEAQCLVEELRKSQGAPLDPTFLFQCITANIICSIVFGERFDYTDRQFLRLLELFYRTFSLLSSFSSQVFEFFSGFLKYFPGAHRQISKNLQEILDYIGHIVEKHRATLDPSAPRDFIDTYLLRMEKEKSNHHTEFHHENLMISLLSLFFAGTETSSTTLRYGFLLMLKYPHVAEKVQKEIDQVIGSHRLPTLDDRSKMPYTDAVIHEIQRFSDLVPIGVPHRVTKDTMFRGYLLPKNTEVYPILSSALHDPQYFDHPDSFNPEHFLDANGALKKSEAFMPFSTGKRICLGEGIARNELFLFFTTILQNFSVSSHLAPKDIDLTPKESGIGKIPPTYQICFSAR

For `N#Cc1cccc(-c2noc(-c3cccnc3)n2)c1` [A-998679, 3-(5-pyridin-3-yl-1,2,4-oxadiazol-3-yl) benzonitrile], the “% parent remaining” value was 87.0% in data set [1] (recombinant rat Cyp 2B1, 0.10 μM); 34.5% in data set [1] (recombinant rat Cyp 2B1, 0.21 μM); 100% in data set [3] (recombinant rat Cyp 2C13, 0.10 μM); 100% in data set [3] (recombinant rat Cyp 2C13, 0.21 μM); 91.9% in data set [5] (recombinant rat Cyp 2D1, 0.10 μM); 91.1% in data set [5] (recombinant rat Cyp 2D1, 0.21 μM). In addition, the “Cyp1a2 mRNA levels in rat jejunum” value in data set [2] was “unchanged”. Besides, the “Cyp1a2 mRNA increase in rat liver (microarray)” value in data set [4] (5 days of dosing, in at least one animal starting at the 100 mg/kg dose) is recorded as 2–3 fold. The “Cyp1a2 mRNA expression in rat liver (RT-PCR)” value in data set [4] (5 days, all doses (30, 100, 200 mg/kg/day)) is given as “strongly induced”.

(Values after publication PMC3481155, “AhR activation underlies the CYP1A autoinduction by A-998679 in rats” (Frontiers in Genetics, 2012).)
